Reference: US20110214194A1 (priority 2005, published 2011)

Key:
[1] = tested on: peritoneal macrophages; format: cell-based, mouse
[2] = tested on: NF-κB, ERK1 and ERK2; test: Immunoblot analysis of IκB and ERK (p42/44) phosphorylation in macrophages; format: cell-based, mouse; conditions: Heedless macrophages, lipid A 100 ng/ml
[3] = tested on: peritoneal macrophages; conditions: Trif mutant macrophages; cited from earlier work
[4] = tested on: type I IFN; format: cell-based, mouse; conditions: Heedless macrophages, 100 ng/ml, 4 hours
[5] = tested on: IRF-3; test: Immunoblot analysis of IRF-3 activation in macrophages; format: cell-based, mouse; conditions: heedless mutant cells, lipid A 100 ng/ml

MALP-2
TNF production in response to the inducer: effect of the Heedless mutation [1]: partial impairment of the response

Pam2CSK4
TNF production in response to the inducer: effect of the Heedless mutation [1]: partial impairment of the response

Pam3CSK4
TNF production in response to the inducer: effect of the Heedless mutation [1]: normal

lipid A
activation of NF-κB and phosphorylation of ERK1 and ERK2 [2]: occurred normally
lipid A-induced TNF production [3]: rather severe impairment
signaling via the MyD88-independent pathway (type I IFN production): effect of the Heedless mutation [4]: prevented
formation of the IRF-3 phosphodimer [5]: not detected

lipoteichoic acid
TNF production in response to the inducer: effect of the Heedless mutation [1]: partial impairment of the response

poly IC
TNF production in response to the inducer: effect of the Heedless mutation [1]: normal
